The values below come from PubChem BioAssay (NCI).

“And” between values parts separate entries of the source, which are not always exact repeats. Identical values can stand only once.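 Results reflect a 48-hour exposure of cells in 96-well plates to compound at five concentrations. Here, GI50 denotes the concentration required for 50% inhibition of growth. TGI: concentration producing complete growth inhibition.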 Some results are limits rather than exact numbers.

The subject of the first test is HCT-15 colon. Description: NCI tumour cell line growth inhibition, 48 h.
Compound `C=C1c2nc3ccccc3n2C=C(c2ccccc2)N1c1ccc([N+](=O)[O-])cc1` yielded a TGI of 32.1 µM.

`Cc1c2cnccc2c(C)c2c1c1ccccc1n2CCCN`: the TGI was 0.724 µM and 1.11 µM.

On to `O=c1[nH][nH]c(=O)n1Cc1ccccc1Cn1c(=O)[nH][nH]c1=O`, for which the TGI is > 100 µM.

The compound `O=C(NNC(=O)c1ccccc1SSc1ccccc1C(=O)NNC(=O)c1ccccc1S)c1ccccc1S` returned a TGI of 61.5 µM.

For `CN1CCN([C@H]2C[C@H]3[C@@H]4CC=C5C[C@@H](O)CC[C@]5(C)[C@H]4CC[C@]3(C)C2=O)CC1`, the TGI is > 100 µM.

`C=C(C1=CC(=O)C(C)(C)O1)[C@@H]1CC=C([C@@H]2CC[C@H]3[C@@]2(C)CC[C@H]2C(C)(C)C(=O)[C@H](O)C[C@]32C)[C@H](O)O1`: the TGI turned out to be 5.16 µM.

For the compound `CCNC(=S)N/N=C/c1cc([N+](=O)[O-])ccc1O`, the TGI is > 100 µM.

As to `Cc1cc(O)c2c(=O)c3ccccc3[nH]c2c1`, the TGI was 52.1 µM.

In turn, `Oc1cccc2c(Cl)ccnc12` came in with a TGI of 29.7 µM.

For `Clc1cc(OC2C3CC4CC(C3)CC2C4)nc(Cl)n1` (stereo not given), the TGI was found to be 33.3 µM.

For the compound `Cc1cccc(/C=N/NC(=S)Nc2ccccc2)n1`, the TGI was > 38.4 µM.

`CCCN=C1CCN(Cc2ccccc2)c2ccccc2N1` gave a TGI of 51.7 µM.

In the case of `CC(C)c1ccc(/C=C2/C=C(c3ccc4ccccc4c3)OC2=O)cc1`, the TGI was > 100 µM.

For the compound `COc1cc(/C=C/C(=N\NS(=O)(=O)c2ccc(C)cc2)c2sc(NNC(C)=O)nc2C)ccc1O`, the TGI is > 100 µM.

In turn, `Oc1ccc(-c2nc(-c3cccnc3)c(-c3ccc(F)cc3)[nH]2)cc1` displayed a TGI of 64.5 µM.

In turn, `CC(C)/C(Cl)=N\OC(=O)Nc1ccc(S(N)(=O)=O)cc1` displayed a TGI of 31.6 µM.

`CNC(=O)OCC1=C(COC(=O)NC)C(C)N(c2ccc(OC)cc2)C1` (stereo not given): the TGI was > 100 µM.

`N#CC1=C(N)N(c2ccccc2)C(c2ccco2)C1(C#N)C#N` (stereo not given) showed a TGI of 43.2 µM.

As to `O=S1(=O)NC(=NCc2c[nH]c3ccccc23)N(c2ccccc2)c2ccncc21`, the TGI is > 100 µM.

On to `Cc1ccsc1/C=N/Nc1ncccn1`, for which the TGI was > 100 µM.

In the case of `Nc1cccc2cc(Cl)cnc12`, the TGI was > 100 µM.

As for `COc1c(C)c(C/C=C(\C)CCCCO[Si](c2ccccc2)(c2ccccc2)C(C)(C)C)c(OC)c(OC)c1OC`, the TGI is > 46.4 µM.

A further test has as its system SK-OV-3 ovarian. Description: NCI tumour cell line growth inhibition, 48 h.
With `C[C@@]12C[C@@H](c3ccccc3O1)N1CCCCSC1=N2`, the TGI was > 100 µM.

`C=C1c2nc3ccccc3n2C=C(c2ccccc2)N1c1ccc([N+](=O)[O-])cc1` displayed a TGI of 15.3 µM.

As for `Cc1c2cnccc2c(C)c2c1c1ccccc1n2CCCN`, the GI50 was 0.278 µM; the TGI is 1.71 µM and 1.25 µM.

Consider `O=c1[nH][nH]c(=O)n1Cc1ccccc1Cn1c(=O)[nH][nH]c1=O`, for which the TGI was > 100 µM.

On to `O=C(NNC(=O)c1ccccc1SSc1ccccc1C(=O)NNC(=O)c1ccccc1S)c1ccccc1S`, for which the TGI is > 100 µM.

In the case of `CN1CCN([C@H]2C[C@H]3[C@@H]4CC=C5C[C@@H](O)CC[C@]5(C)[C@H]4CC[C@]3(C)C2=O)CC1`, the TGI is > 100 µM.

Regarding `C=C(C1=CC(=O)C(C)(C)O1)[C@@H]1CC=C([C@@H]2CC[C@H]3[C@@]2(C)CC[C@H]2C(C)(C)C(=O)[C@H](O)C[C@]32C)[C@H](O)O1`, the TGI was 27.9 µM.

For `CCNC(=S)N/N=C/c1cc([N+](=O)[O-])ccc1O`, the TGI was > 100 µM.

For the compound `Cc1cc(O)c2c(=O)c3ccccc3[nH]c2c1`, the TGI was > 100 µM.

`Oc1cccc2c(Cl)ccnc12` yielded a TGI of 96.9 µM.

As to `Clc1cc(OC2C3CC4CC(C3)CC2C4)nc(Cl)n1` (stereo not given), the TGI was > 100 µM.

Turning to `Cc1cccc(/C=N/NC(=S)Nc2ccccc2)n1`, the TGI is > 68.7 µM.

As to `CCCN=C1CCN(Cc2ccccc2)c2ccccc2N1`, the TGI is > 100 µM.

Regarding `CC(C)c1ccc(/C=C2/C=C(c3ccc4ccccc4c3)OC2=O)cc1`, the TGI is > 100 µM.

For the compound `COc1cc(/C=C/C(=N\NS(=O)(=O)c2ccc(C)cc2)c2sc(NNC(C)=O)nc2C)ccc1O`, the TGI was > 100 µM.

Take `Oc1ccc(-c2nc(-c3cccnc3)c(-c3ccc(F)cc3)[nH]2)cc1`: the TGI worked out at 57.1 µM.

`CC(C)/C(Cl)=N\OC(=O)Nc1ccc(S(N)(=O)=O)cc1` registered a TGI of 31.5 µM.

As for `CNC(=O)OCC1=C(COC(=O)NC)C(C)N(c2ccc(OC)cc2)C1` (stereo not given), the TGI is > 100 µM.

On to `N#CC1=C(N)N(c2ccccc2)C(c2ccco2)C1(C#N)C#N` (stereo not given), for which the TGI is > 100 µM.

Consider `O=S1(=O)NC(=NCc2c[nH]c3ccccc23)N(c2ccccc2)c2ccncc21`, for which the TGI is > 100 µM.

For the compound `Cc1ccsc1/C=N/Nc1ncccn1`, the TGI is > 100 µM.

On to `Nc1cccc2cc(Cl)cnc12`, for which the TGI was > 100 µM.

For the compound `COc1c(C)c(C/C=C(\C)CCCCO[Si](c2ccccc2)(c2ccccc2)C(C)(C)C)c(OC)c(OC)c1OC`, the TGI is > 46.4 µM.

In another test the test system is MALME-3M melanoma. Description: NCI tumour cell line growth inhibition, 48 h.
Take `C[C@@]12C[C@@H](c3ccccc3O1)N1CCCCSC1=N2`: the TGI was > 100 µM.

`C=C1c2nc3ccccc3n2C=C(c2ccccc2)N1c1ccc([N+](=O)[O-])cc1` came in with a TGI of 25.9 µM.

As to `Cc1c2cnccc2c(C)c2c1c1ccccc1n2CCCN`, the GI50 is 0.313 µM; the TGI was 2.09 µM and 1.08 µM.

As to `O=c1[nH][nH]c(=O)n1Cc1ccccc1Cn1c(=O)[nH][nH]c1=O`, the TGI is > 100 µM.

`O=C(NNC(=O)c1ccccc1SSc1ccccc1C(=O)NNC(=O)c1ccccc1S)c1ccccc1S`: the TGI was > 81.2 µM.

With `CN1CCN([C@H]2C[C@H]3[C@@H]4CC=C5C[C@@H](O)CC[C@]5(C)[C@H]4CC[C@]3(C)C2=O)CC1`, the TGI was > 100 µM.

As to `C=C(C1=CC(=O)C(C)(C)O1)[C@@H]1CC=C([C@@H]2CC[C@H]3[C@@]2(C)CC[C@H]2C(C)(C)C(=O)[C@H](O)C[C@]32C)[C@H](O)O1`, the TGI is 5.27 µM.

On to `CCNC(=S)N/N=C/c1cc([N+](=O)[O-])ccc1O`, for which the TGI was > 100 µM.

With `Cc1cc(O)c2c(=O)c3ccccc3[nH]c2c1`, the TGI was > 100 µM.

In turn, `Oc1cccc2c(Cl)ccnc12` displayed a TGI of 25.4 µM.

Compound `Clc1cc(OC2C3CC4CC(C3)CC2C4)nc(Cl)n1` (stereo not given) gave a TGI of 30.1 µM.

In the case of `Cc1cccc(/C=N/NC(=S)Nc2ccccc2)n1`, the TGI is 64.2 µM.

`CCCN=C1CCN(Cc2ccccc2)c2ccccc2N1` returned a TGI of 22.1 µM.

`CC(C)c1ccc(/C=C2/C=C(c3ccc4ccccc4c3)OC2=O)cc1` gave a TGI of 33.4 µM.

`COc1cc(/C=C/C(=N\NS(=O)(=O)c2ccc(C)cc2)c2sc(NNC(C)=O)nc2C)ccc1O`: the TGI is > 100 µM.

`Oc1ccc(-c2nc(-c3cccnc3)c(-c3ccc(F)cc3)[nH]2)cc1` gave a TGI of 32.6 µM.

In turn, `CC(C)/C(Cl)=N\OC(=O)Nc1ccc(S(N)(=O)=O)cc1` registered a TGI of 10.1 µM.

With `CNC(=O)OCC1=C(COC(=O)NC)C(C)N(c2ccc(OC)cc2)C1` (stereo not given), the TGI is > 100 µM.

With `N#CC1=C(N)N(c2ccccc2)C(c2ccco2)C1(C#N)C#N` (stereo not given), the TGI turned out to be 52.8 µM.

For `O=S1(=O)NC(=NCc2c[nH]c3ccccc23)N(c2ccccc2)c2ccncc21`, the TGI was > 100 µM.

`Cc1ccsc1/C=N/Nc1ncccn1`: the TGI was > 100 µM.

For `Nc1cccc2cc(Cl)cnc12`, the TGI was > 100 µM.

Consider `COc1c(C)c(C/C=C(\C)CCCCO[Si](c2ccccc2)(c2ccccc2)C(C)(C)C)c(OC)c(OC)c1OC`, for which the TGI was > 100 µM.
